Test results published in ChEMBL document CHEMBL5150060 (J Med Chem, 2022).
pIC50, pKi: −log10 of the molar value. The source made the active and inactive calls. The rule behind the calls is not given here.

Assays:
[1] = target: T1, Histone deacetylase 8 (Homo sapiens) (UniProt Q9BY41); test: Inhibition of HDAC8 in human Jurkat T cells assessed as upregulation of IL23 expression after 6 hrs by RT-qPCR analysis; type: cell-based; settings: dose 0.1-10 µM, DDE = dose-dependent effect
T1 sequence (whole entry): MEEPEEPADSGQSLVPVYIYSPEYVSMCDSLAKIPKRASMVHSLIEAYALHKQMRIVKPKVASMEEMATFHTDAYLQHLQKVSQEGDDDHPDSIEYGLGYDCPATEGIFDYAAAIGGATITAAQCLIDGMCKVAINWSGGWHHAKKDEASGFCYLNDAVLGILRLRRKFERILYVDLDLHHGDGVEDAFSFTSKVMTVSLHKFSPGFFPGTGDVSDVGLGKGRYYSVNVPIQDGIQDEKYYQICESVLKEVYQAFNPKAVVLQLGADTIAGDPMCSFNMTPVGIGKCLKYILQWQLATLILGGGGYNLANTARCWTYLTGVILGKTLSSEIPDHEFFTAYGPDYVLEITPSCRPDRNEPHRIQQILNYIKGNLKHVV

[2] = Stability of compound in DMEM/DMSO/acetonitrile at pH 7.4 measured after 6 hrs by HPLC analysis; type: physicochemical; settings: read-out: Stability
[3] = Toxicity in C57BL/6 mouse assessed as change in liver weight at 5 to 10 mg/kg, ip administered 5 days per week for 2 weeks by H and E staining based assay; type: organism-based; settings: in vivo, 336 h, dose 5-10 mg/kg
[4] = target: T1, Histone deacetylase 8 (Homo sapiens); test: Inhibition of HDAC8 in human Jurkat T cells assessed as upregulation of PRDM1 expression at 10 uM after 6 to 12 hrs by RT-qPCR analysis; type: cell-based; settings: time 6-12 hrs
Mus musculus = test: Immuno-modulatory activity in C57BL/6 mouse assessed as increase in proportion of CD8+ cells in spleen at 10 mg/kg, ip administered 5 days per week for 2 weeks by flow cytometry analysis; type: functional, organism-based
Histone deacetylase 8 = target: T2, Histone deacetylase 8 (Homo sapiens, UniProt Q9BY41); test: Competitive inhibition of human HDAC8 using Abz-SRGGK(STFA)FFRR-NH2 (S) as substrate by Lineweaver-burk plot analysis
T2 sequence (Q9BY41 whole entry): T1 sequence (whole entry)

[5] = target: T1, Histone deacetylase 8 (Homo sapiens); test: Inhibition of HDAC8 in human Jurkat T cells assessed as upregulation of KLRG1 expression after 6 hrs by RT-qPCR analysis; type: cell-based; settings: dose 0.1-10 µM, DDE = dose-dependent effect
Histone deacetylase 2 = Histone deacetylase 2 (Homo sapiens, UniProt Q92769); test: Inhibition of recombinant human HDAC2 using p53 (Ac-RHKK(Acetyl)-AMC) as substrate preincubated for 5 mins followed by substrate addition and measured after 30 mins by fluorescence based analysis
Sequence of Histone deacetylase 2 (Q92769 whole entry): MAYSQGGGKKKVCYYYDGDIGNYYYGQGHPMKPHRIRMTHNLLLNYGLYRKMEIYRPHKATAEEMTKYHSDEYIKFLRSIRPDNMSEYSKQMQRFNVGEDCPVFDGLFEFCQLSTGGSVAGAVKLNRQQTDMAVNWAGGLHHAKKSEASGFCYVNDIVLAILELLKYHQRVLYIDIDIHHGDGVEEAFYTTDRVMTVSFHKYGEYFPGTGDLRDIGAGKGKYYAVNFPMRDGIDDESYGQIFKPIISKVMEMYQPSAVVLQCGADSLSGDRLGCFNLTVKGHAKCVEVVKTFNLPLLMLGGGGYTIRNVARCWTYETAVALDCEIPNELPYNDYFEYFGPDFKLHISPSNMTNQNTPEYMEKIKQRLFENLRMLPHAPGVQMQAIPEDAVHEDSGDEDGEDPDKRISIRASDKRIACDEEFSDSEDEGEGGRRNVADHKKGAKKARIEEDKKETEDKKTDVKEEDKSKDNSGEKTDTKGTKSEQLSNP

[6] = target: T1, Histone deacetylase 8 (Homo sapiens); test: Inhibition of HDAC8 in human Jurkat T cells assessed as upregulation of IL10 expression after 6 hrs by RT-qPCR analysis; type: cell-based; settings: dose 0.1-10 µM, DDE = dose-dependent effect
[7] = target: T1, Histone deacetylase 8 (Homo sapiens); test: Inhibition of HDAC8 in human Jurkat T cells assessed as upregulation of BCL6 expression after 6 hrs by RT-qPCR analysis; type: cell-based; settings: dose 0.1-10 µM, DDE = dose-dependent effect
Histone deacetylase 4 = Histone deacetylase 4 (Homo sapiens, UniProt P56524); test: Inhibition of HDAC4 (unknown origin)
Sequence of Histone deacetylase 4 (P56524 whole entry): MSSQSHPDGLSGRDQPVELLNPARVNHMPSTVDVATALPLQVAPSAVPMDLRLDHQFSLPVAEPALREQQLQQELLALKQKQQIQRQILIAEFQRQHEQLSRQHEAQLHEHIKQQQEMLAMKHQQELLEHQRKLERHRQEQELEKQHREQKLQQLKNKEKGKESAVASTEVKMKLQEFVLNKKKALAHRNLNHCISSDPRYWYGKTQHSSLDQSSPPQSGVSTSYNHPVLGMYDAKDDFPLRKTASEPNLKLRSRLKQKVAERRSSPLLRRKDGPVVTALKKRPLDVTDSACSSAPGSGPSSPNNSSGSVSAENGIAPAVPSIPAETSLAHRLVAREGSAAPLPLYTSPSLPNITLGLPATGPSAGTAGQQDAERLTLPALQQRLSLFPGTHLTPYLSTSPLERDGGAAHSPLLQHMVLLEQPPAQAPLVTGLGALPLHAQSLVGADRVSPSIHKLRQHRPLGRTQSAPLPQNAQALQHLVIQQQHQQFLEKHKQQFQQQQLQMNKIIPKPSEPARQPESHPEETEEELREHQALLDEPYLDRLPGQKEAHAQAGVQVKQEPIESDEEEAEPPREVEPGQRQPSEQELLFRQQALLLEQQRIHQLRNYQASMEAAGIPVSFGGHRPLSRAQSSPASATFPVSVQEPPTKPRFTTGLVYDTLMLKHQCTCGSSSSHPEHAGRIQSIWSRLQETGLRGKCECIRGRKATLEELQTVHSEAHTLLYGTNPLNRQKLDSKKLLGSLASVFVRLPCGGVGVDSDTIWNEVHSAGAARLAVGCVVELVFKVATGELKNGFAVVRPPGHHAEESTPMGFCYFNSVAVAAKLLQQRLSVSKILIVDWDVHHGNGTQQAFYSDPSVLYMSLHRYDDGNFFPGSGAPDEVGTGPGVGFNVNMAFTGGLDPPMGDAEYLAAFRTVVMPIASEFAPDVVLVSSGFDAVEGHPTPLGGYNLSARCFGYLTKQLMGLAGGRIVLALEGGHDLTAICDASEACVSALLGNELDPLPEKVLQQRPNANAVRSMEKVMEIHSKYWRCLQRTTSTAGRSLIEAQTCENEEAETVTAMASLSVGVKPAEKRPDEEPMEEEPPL

Histone deacetylase 11 = target: T3, Histone deacetylase 11 (Homo sapiens, UniProt Q96DB2); test: Inhibition of recombinant human HDAC11 preincubated for 10 mins followed by substrate addition by fluorescence based analysis
T3 sequence (Q96DB2 whole entry): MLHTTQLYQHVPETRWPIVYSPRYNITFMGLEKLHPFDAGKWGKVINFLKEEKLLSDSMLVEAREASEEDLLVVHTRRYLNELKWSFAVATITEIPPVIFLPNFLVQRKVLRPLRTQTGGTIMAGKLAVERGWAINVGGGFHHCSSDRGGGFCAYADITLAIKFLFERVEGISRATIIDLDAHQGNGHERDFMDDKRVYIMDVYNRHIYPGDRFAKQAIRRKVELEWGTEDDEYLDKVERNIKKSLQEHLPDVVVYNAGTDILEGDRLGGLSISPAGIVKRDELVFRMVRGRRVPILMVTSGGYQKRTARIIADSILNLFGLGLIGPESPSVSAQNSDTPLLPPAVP

[8] = Toxicity in C57BL/6 mouse assessed as change in kidney weight at 5 to 10 mg/kg, ip administered 5 days per week for 2 weeks by H and E staining based assay; type: organism-based; settings: in vivo, 336 h, dose 5-10 mg/kg
[9] = Toxicity in C57BL/6 mouse assessed as change in body weight at 5 to 10 mg/kg, ip administered 5 days per week for 2 weeks; type: organism-based; settings: in vivo, 336 h, dose 5-10 mg/kg
Histone deacetylase 1 = Histone deacetylase 1 (Homo sapiens, UniProt Q13547); test: Inhibition of recombinant human HDAC1 using p53 (Ac-RHKK(Acetyl)-AMC) as substrate preincubated for 5 mins followed by substrate addition and measured after 90 mins by fluorescence based analysis
Sequence of Histone deacetylase 1 (Q13547 whole entry): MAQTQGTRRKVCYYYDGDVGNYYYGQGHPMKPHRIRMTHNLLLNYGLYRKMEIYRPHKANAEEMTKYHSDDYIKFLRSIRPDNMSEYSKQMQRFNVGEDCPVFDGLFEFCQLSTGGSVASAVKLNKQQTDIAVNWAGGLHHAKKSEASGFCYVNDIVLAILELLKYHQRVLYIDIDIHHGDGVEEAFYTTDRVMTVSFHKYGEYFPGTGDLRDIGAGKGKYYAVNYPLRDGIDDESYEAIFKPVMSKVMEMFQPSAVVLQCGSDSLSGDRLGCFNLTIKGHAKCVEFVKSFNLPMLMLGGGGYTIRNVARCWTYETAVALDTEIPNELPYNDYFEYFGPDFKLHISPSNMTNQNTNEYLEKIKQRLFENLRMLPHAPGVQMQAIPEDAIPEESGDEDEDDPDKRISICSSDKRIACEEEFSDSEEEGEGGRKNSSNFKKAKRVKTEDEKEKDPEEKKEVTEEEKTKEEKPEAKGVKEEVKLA

[10] = target: T1, Histone deacetylase 8 (Homo sapiens); test: Inhibition of HDAC8 in human Jurkat T cells assessed as upregulation of IL-7R expression at 10 uM after 6 to 12 hrs by RT-qPCR analysis; type: cell-based; settings: time 6-12 hrs
[11] = Stability of compound in DMEM/DMSO/acetonitrile at pH 7.4 measured after 72 hrs by HPLC analysis; type: physicochemical; settings: read-out: Stability
[12] = Stability of compound in DMEM/DMSO/acetonitrile at pH 7.4 measured after 12 hrs by HPLC analysis; type: physicochemical; settings: read-out: Stability
[13] = target: T1, Histone deacetylase 8 (Homo sapiens); test: Inhibition of HDAC8 in human Jurkat T cells assessed as upregulation of […] expression at 10 uM after 6 to 12 hrs by RT-qPCR analysis; type: cell-based; settings: time 6-12 hrs
HEK293 = test: Cytotoxicity against HEK293 cells assessed as reduction in cell viability at 50 uM after 24 hrs by alamar blue assay; type: toxicity, cell-based; settings: human, hek293, 24 h
[14] = Toxicity in C57BL/6 mouse assessed as change in lung weight at 5 to 10 mg/kg, ip administered 5 days per week for 2 weeks by H and E staining based assay; type: organism-based; settings: in vivo, 336 h, dose 5-10 mg/kg

- inhibition [1]: Dde
- remaining at 6 h [2]: 103%
- inhibition [4]: Active
- pKi (Histone deacetylase 8): 7.51
- inhibition [5]: Dde
- pIC50 (Histone deacetylase 2): 4.92
- inhibition [6]: Dde
- inhibition [7]: Dde
- pIC50 (Histone deacetylase 4): < 4.70
- pIC50 (Histone deacetylase 11): 6.74
- pIC50 (Histone deacetylase 1): 5.74
- inhibition [10]: Active
- remaining at 72 h [11]: 103%
- remaining at 12 h [12]: 104%
- inhibition [13]: Active
Structure (SMILES): CCCCCCNNC(=O)c1ccc(-c2ccc(CNC(C)=O)cc2)cc1
- Activity [3]: Non-Toxic
- Activity (Mus musculus): Active
- Activity [8]: Non-Toxic
- Activity [9]: Non-Toxic
- Cell viability (HEK293): 121.3%
- Activity [14]: Non-Toxic
